From patent US20240417405A1, “Substituted Spiro Derivatives” (Janssen Pharmaceutica NV, priority 2021, published 2024)

Key:
[1] = tested on: KO-52 cells; test: Proliferation assay, spheroid-like growth, KO-52 (MLL wildtype control cell line); assay type: cell-based, human; details: Homo sapiens, 192 h, KO-52 control cells, 8 days, confluence as measure of spheroid size; read-out: spheroid assay_OneTime KO-52 IC50
Procedure, shortened: (§1)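 Cells seeded in ultra-low attachment round-bottom wells (200 MOLM14 or 300 KO-52 per well) with compound at several concentrations, DMSO 0.3%, grown 8 days at 37° C, 5% CO2. Spheroid size taken as confluence from day-8 live-cell images; IC50 from variable-slope fit, DMSO as 0% and high-dose reference compound as 100% effect.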

[2] = molecular target: T1, menin/MLL (terbium chelate-labeled menin, FITC-MBM1 peptide) (Homo sapiens, UniProt O00255, T541A); test: Menin/MLL homogenous time-resolved fluorescence (HTRF) assay; assay type: binding; details: 30 min incubation
T1 construct: Menin (a.a 1-610-6xhis tag)
T1 sequence (O00255 with tags, fused parts or gaps T541A): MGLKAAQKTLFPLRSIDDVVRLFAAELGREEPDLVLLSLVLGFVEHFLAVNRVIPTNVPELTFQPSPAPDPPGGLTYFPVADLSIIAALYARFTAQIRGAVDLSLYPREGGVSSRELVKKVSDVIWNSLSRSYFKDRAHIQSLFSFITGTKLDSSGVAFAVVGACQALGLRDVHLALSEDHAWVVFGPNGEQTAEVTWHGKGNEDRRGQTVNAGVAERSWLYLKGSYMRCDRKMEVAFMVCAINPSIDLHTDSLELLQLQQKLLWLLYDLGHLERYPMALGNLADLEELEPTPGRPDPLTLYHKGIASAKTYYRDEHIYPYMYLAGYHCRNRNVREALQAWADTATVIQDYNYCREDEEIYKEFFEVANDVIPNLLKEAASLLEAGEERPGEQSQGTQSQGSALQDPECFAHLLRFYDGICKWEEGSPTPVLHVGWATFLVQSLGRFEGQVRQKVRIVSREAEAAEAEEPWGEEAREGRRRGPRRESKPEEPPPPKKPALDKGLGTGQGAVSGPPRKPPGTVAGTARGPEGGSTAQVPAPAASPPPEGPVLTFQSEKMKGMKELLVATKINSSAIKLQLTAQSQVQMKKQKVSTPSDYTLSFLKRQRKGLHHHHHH
Procedure, shortened: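 Terbium-labeled menin (aa 1-610, His-tagged; 200 pM) preincubated 30 min with compound, then 75 nM FITC-MBM1 peptide added for 15 min at ambient temperature in pH 7.5 Tris buffer, 0.5% DMSO. HTRF ratio 520/490 nm converted to % inhibition. IC50 came from an 11-point four-fold titration from 10 μM, floor 0.1 nM.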

[3] = tested on: MOLM14 cells; test: Proliferation assay, spheroid-like growth, MOLM14 (MLL-AF9 rearranged); assay type: cell-based, human; details: Homo sapiens, MOLM-14, 192 h, 8 days, confluence as measure of spheroid size, read-out: spheroid assay_OneTime MOLM14 IC50
Procedure, shortened: as §1

IC50 [2] [nM]	IC50 [3] [nM]	SMILES	IC50 [1] [µM]
0.1	4	CC(C)[C@@H]([C@H]1C[C@@H](N2C[C@H]3COC[C@H]3C2)C1)N1CC2(CCN(c3ncnnc3Oc3ccc(F)cc3-c3nnccc3C3CC3)C2)C1 (single isomer, unassigned) [Compound 258]	0.49
0.3	35	COc1ncc(-c2cc(F)ccc2Oc2nncnc2N2CCC3(C2)CN(C(C(C)C)[C@H]2C[C@@H](NC(C)=O)C2)C3)c(C2CC2)n1 (stereo partly drawn) [Compound 500]	10.2
0.2	32	CC(C)C([C@H]1C[C@@H](N2CCC3(COC3)C2)C1)N1CC2(CCN(c3ncnnc3Oc3ccc(F)cc3-c3cncnc3C3CC3)C2)C1 (stereo partly drawn) [Compound 326]	9.18
0.1	20	CC(C)[C@H](C1CCN(C[C@H]2C[C@@](C)(O)C2)CC1)N1CC2(CCN(c3ncnnc3Oc3ccc(F)cc3-c3cccnc3C3CC3)C2)C1 (single isomer, unassigned) [Compound 351]	1.1
0.1	9	CC(C)[C@H]([C@H]1C[C@@H](N2C[C@H]3C[C@@H]2CO3)C1)N1CC2(CCN(c3ncnnc3Oc3ccc(F)cc3-c3cncnc3C3CC3)C2)C1 (single isomer, unassigned) [Compound 234]	6.28
0.1	39	CC(C)[C@H]([C@H]1C[C@@H](N2CCC3(C2)CS(=O)(=O)C3)C1)N1CC2(CCN(c3ncnnc3Oc3ccc(F)cc3-c3cncnc3C3CC3)C2)C1 (single isomer, unassigned) [Compound 205]	8.47
0.3	16	CC(C)[C@H]([C@H]1C[C@@H](N2CCC(S(=O)(=O)C(C)C)CC2)C1)N1CC2(CCN(c3ncnnc3Oc3ccc(F)cc3-c3cncnc3C3CC3)C2)C1 (single isomer, unassigned) [Compound 209]	5.26
0.17	3	CC(C)[C@H]([C@H]1C[C@@H](Nc2ncc(C(=O)N(C)C)o2)C1)N1CC2(CCN(c3ncnnc3Oc3ccc(F)cc3-c3cncnc3C3CC3)C2)C1 (single isomer, unassigned) [Compound 435]	2.47
0.2	36	COC1CN([C@H]2C[C@H]([C@@H](C(C)C)N3CC4(CCN(c5ncnnc5Oc5ccc(F)cc5-c5cncnc5C5CC5)C4)C3)C2)CC1OC (single isomer, unassigned) [Compound 237]	7.9
1.3	510	CC(C)C(C1CC(O)(c2cnn(C)c2)C1)N1CC2(CCN(c3ncnnc3Oc3ccc(F)cc3-c3cncnc3C3CC3)C2)C1 (stereo not drawn) [Compound 195]	> 15
12.7	270	CC(C)[C@H]([C@H]1C[C@@H](N2CCC3(CCO3)CC2)C1)N1CC2(CCN(c3ncnnc3Oc3ccc(F)cc3-c3nnccc3C3CC3)C2)C1 (single isomer, unassigned) [Compound 252]	> 15
0.3	190	CC(C)[C@H]([C@H]1C[C@H](N2CCC3(C2)CS(=O)(=O)C3)C1)N1CC2(CCN(c3ncnnc3Oc3ccc(F)cc3-c3cncnc3C3CC3)C2)C1 (single isomer, unassigned) [Compound 204]	> 15
0.3	56	CC(=O)N[C@H]1C[C@@H]([C@@H](C(C)C)N2CC3(CCN(c4ncnnc4Oc4ccc(F)cc4-c4nncnc4C4CC4)C3)C2)C1 (single isomer, unassigned) [Compound 306]	6.46
0.6	460	CC(C)[C@@H]([C@H]1C[C@H](N2C[C@H]3COC[C@H]3C2)C1)N1CC2(CCN(c3ncnnc3Oc3ccc(F)cc3-c3cncnc3C3CC3)C2)C1 (single isomer, unassigned) [Compound 245]	8.94

The next lines start with the compound.

SMILES	IC50 [2] [nM]	IC50 [3] [nM]	IC50 [1] [µM]
CC(C)[C@H]([C@H]1C[C@H](N2CC3(CCO3)C2)C1)N1CC2(CCN(c3ncnnc3Oc3ccc(F)cc3-c3cncnc3C3CC3)C2)C1 (single isomer, unassigned) [Compound 146]	0.2	160	6.6
CC(C)[C@@H]([C@H]1C[C@@H](N2CCC(O)C(F)C2)C1)N1CC2(CCN(c3ncnnc3Oc3ccc(F)cc3-c3cncnc3C3CC3)C2)C1 (single isomer, unassigned) [Compound 85]	25.4	1560	> 15
CC(C)[C@H]([C@H]1C[C@@H](N2CCC(O)CC2)C1)N1CC2(CCN(c3ncnnc3Oc3ccc(F)cc3-c3cncnc3C3CC3)C2)C1 (single isomer, unassigned) [Compound 22]	0.1	3	10.8
CC(=O)N1CCN([C@H]2C[C@@H]([C@@H](C(C)C)N3CC4(CCN(c5ncnnc5Oc5ccc(F)cc5-c5cncnc5C5CC5)C4)C3)C2)CC1 (single isomer, unassigned) [Compound 34]	0.5	36	5.14
CC(=O)N1CC2(C1)CN([C@H]1C[C@H]([C@@H](C(C)C)N3CC4(CCN(c5ncnnc5Oc5ccc(F)cc5-c5cncnc5C5CC5)C4)C3)C1)C2 (single isomer, unassigned) [Compound 171]	0.1	31	> 15
CC(C)[C@H]([C@H]1C[C@@H](N2C[C@@H](O)C3(CC3)C2)C1)N1CC2(CCN(c3ncnnc3Oc3ccc(F)cc3-c3cncnc3C3CC3)C2)C1 (single isomer, unassigned) [Compound 46]	0.1	2	5.93
CC(=O)N1CC[C@]12CCN([C@H]1C[C@@H]([C@@H](C(C)C)N3CC4(CCN(c5ncnnc5Oc5ccc(F)cc5-c5cncnc5C5CC5)C4)C3)C1)C2 (single isomer, unassigned) [Compound 60]	0.2	7	3.37
CC(C)[C@H]([C@H]1C[C@@H](N(C)C2CCOCC2)C1)N1CC2(CCN(c3ncnnc3Oc3ccc(F)cc3-c3cncnc3C3CC3)C2)C1 (single isomer, unassigned) [Compound 164]	0.1	10	1.41
CC(=O)N[C@H]1C[C@@H](C(C(C)C)N2CC3(CCN(c4ncnnc4Oc4ccc(F)cc4-c4cccc(=O)n4C4CC4)C3)C2)C1 (stereo partly drawn) [Compound 188]	0.2	520	> 15
CC(C)[C@H]([C@H]1C[C@@H](N2CC(O)C3(CC3)C2)C1)N1CC2(CCN(c3ncnnc3Oc3ccc(F)cc3-c3cncnc3C3CC3)C2)C1 (mixture of isomers) [Compound 42]	0.1	4	2.12
CC(C)[C@@H](C1CC2(C1)CN(CC1COC1)C2)N1CC2(CCN(c3ncnnc3Oc3ccc(F)cc3-c3cncnc3C3CC3)C2)C1 (single isomer, unassigned) [Compound 157]	0.2	120	7.77
CC(C)[C@H]([C@H]1C[C@@H](N2CC3(CCO3)C2)C1)N1CC2(CCN(c3ncnnc3Oc3ccc(F)cc3-c3cncnc3C3CC3)C2)C1 (single isomer, unassigned) [Compound 145]	0.2	6	3.58
CC(C)[C@H]([C@H]1C[C@@H](N2CC[C@@H](O)C23CC3)C1)N1CC2(CCN(c3ncnnc3Oc3ccc(F)cc3-c3cncnc3C3CC3)C2)C1 (single isomer, unassigned) [Compound 40]	0.2	10	0.5
CC(C)[C@@H]([C@H]1C[C@@H](N(C)C)C1)N1CC2(CCN(c3ncnnc3Oc3ccc(F)cc3-c3ncccc3C3CC3)C2)C1 (single isomer, unassigned) [Compound 153]	5.3	730	4.83
CC(C)[C@H]([C@H]1C[C@H](N2CCC(F)C(O)C2)C1)N1CC2(CCN(c3ncnnc3Oc3ccc(F)cc3-c3cncnc3C3CC3)C2)C1 (single isomer, unassigned) [Compound 31]	0.3	7	2.41
